Assay [1] concerns the target T1, GppNHp-loaded KRAS4b (amino acids 1-169) G12C/C118S protein (Homo sapiens, UniProt P01116, C118S/G12C).
T1 construct: KRAS4b (amino acids 1-169) G12C/C118S protein; made in house
In words: Covalent cysteine 12 modification by MALDI-TOF MS, GppNHp-loaded KRAS G12C. The format is binding. The following applies: 15 minutes reaction time point. An outline of the steps:
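Covalent adduct formation measured by linear-mode MALDI-TOF MS as modified peak height over summed peak heights, 15 min time point reported. Reactions: KRAS4b 1-169 G12C/C118S (1 μM, loaded with GppNHp, GTP or GDP) plus compound at 1:2.5 ratio, pH 7.3 HEPES/NaCl/MgCl2, room temperature.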

In another assay the test system is pERK in NCI-H358 cells. Description: Cell-based pERK HTRF assay (pERK inhibition in H358 cells). As to conditions: 30 min incubation. An outline of the steps:
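NCI-H358 cells were seeded at 4×10^4 cells/well in RPMI/10% FBS, then treated next day for 30 min at 0.25% DMSO (9-point, 3-fold series from 75 μM). Lysates were read by HTRF (d2/Eu cryptate antibody pair, 615 nm emission) after 4–24 h at room temperature to give pERK IC50.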
On the technique in general: TR-FRET usually uses a lanthanide donor and a delayed reading to cut background.

As for `C=CC(=O)N1C[C@H](N(C)c2nc(OC[C@@]34CCCN3C[C@H](F)C4)nc3cc(-c4ccc(F)c5sc(N)c(C#N)c45)c(F)cc23)C[C@@H]1C` [Compound 109], in assay [1], the “GppNHp-KRAS G12C percent of modification” value is recorded as “C (10%≤percent of modification <50%)”. Further, in the assay on pERK in NCI-H358 cells (Homo sapiens, NCI-H358, 0.5 h), the half-inhibitory concentration (IC50) is less than 0.1 µM.

Turning to `C=CC(=O)N1CC[C@@H](N(C)c2nc(OC[C@@]34CCCN3C[C@H](F)C4)nc3cc(-c4nc(N)cc(C)c4C(F)(F)F)c(F)cc23)[C@H]1C` [Compound 110], the “GppNHp-KRAS G12C percent of modification” value in assay [1] is recorded as “A (percent of modification ≥70%)”. In the assay with pERK in NCI-H358 cells (Homo sapiens, NCI-H358, 0.5 h), the half-inhibitory concentration (IC50) was in the range of 0.1 to 1 µM.

In the case of `C=CC(=O)N1CC[C@@H](N(C)c2nc(OC[C@@H]3CC4(CC4)CN3C)nc3c(F)c(-c4ccc(F)c5sc(N)c(C#N)c45)c(C(F)(F)F)cc23)[C@@H]1C` [Compound 112], in assay [1], the “GppNHp-KRAS G12C percent of modification” value is given as “D (percent of modification <10%)”. For the same compound, the 50% inhibitory concentration (IC50) with pERK in NCI-H358 cells lay within 0.1 to 1 µM.

Consider `C=CC(=O)N1CC[C@@H](N(C)c2nc(OC[C@@]34CCCN3C[C@H](F)C4)nc3c(F)c(-c4nc(N)cc(C)c4C(F)(F)F)ccc23)[C@H]1C` [Compound 115], for which, in assay [1], the “GppNHp-KRAS G12C percent of modification” value is given as “A (percent of modification ≥70%)”. Moreover, the half-inhibitory concentration (IC50) in the assay on pERK in NCI-H358 cells (Homo sapiens, NCI-H358, 0.5 h) lay in the range of 0.1 to 1 µM.

`C=CC(=O)N1CC[C@@H](N(C)c2nc(OC[C@@H]3CCCN3C)nc3c(F)c(-c4nc(N)cc(C)c4C(F)(F)F)c(C(F)(F)F)cc23)[C@H]1C` [Compound 122]: the “GppNHp-KRAS G12C percent of modification” value in assay [1] is recorded as “A (percent of modification ≥70%)”. This compound came in with a 50% inhibitory concentration (IC50) with pERK in NCI-H358 cells (Homo sapiens, NCI-H358, 0.5 h) of 0.1 to 1 µM.

`C=CC(=O)N1C[C@@H](C)N(c2nc(OC[C@@]34CCCN3C[C@H](F)C4)nc3c(F)c(-c4ccc(F)c5sc(N)c(C#N)c45)c(C(F)(F)F)cc23)C[C@@H]1C` [Compound 124]: the “GppNHp-KRAS G12C percent of modification” value in assay [1] is listed as “C (10%≤percent of modification <50%)”. The same compound showed an IC50 in the assay with pERK in NCI-H358 cells (Homo sapiens, NCI-H358, 0.5 h) of less than 0.1 µM.

`C=CC(=O)N1CC[C@@H](N(CC)c2nc(OC[C@@H]3CCCN3C)nc3cc(-c4ccc(F)c5sc(N)c(C#N)c45)c(F)cc23)[C@H]1C` [Compound 138]: the “GppNHp-KRAS G12C percent of modification” value in assay [1] was “A (percent of modification ≥70%)”. This compound also yielded a concentration for half-maximal inhibition (IC50) in the assay with pERK in NCI-H358 cells (Homo sapiens, NCI-H358, 0.5 h) of less than 0.1 µM.

Regarding `C=CC(=O)N1CC[C@@H](N(CC)c2nc(OC[C@@H]3C[C@@H](F)CN3C)nc3cc(-c4ccc(F)c5sc(N)c(C#N)c45)c(F)cc23)[C@H]1C` [Compound 139], the “GppNHp-KRAS G12C percent of modification” value in assay [1] is “A (percent of modification ≥70%)”. Further, in the assay with pERK in NCI-H358 cells (Homo sapiens, NCI-H358, 0.5 h), the IC50 fell in the range of 0.1 to 1 µM.

For the compound `C=CC(=O)N1CC[C@@H](N(CC)c2nc(OC[C@@H]3C[C@@H](OC)CN3C)nc3cc(-c4ccc(F)c5sc(N)c(C#N)c45)c(F)cc23)[C@H]1C` [Compound 140], in assay [1], the “GppNHp-KRAS G12C percent of modification” value is reported as “A (percent of modification ≥70%)”. In the assay on pERK in NCI-H358 cells (Homo sapiens, NCI-H358, 0.5 h), this compound displayed an IC50 of less than 0.1 µM.

As to `C=CC(=O)N1CC[C@@H](N(CC)c2nc(OC[C@@H]3CCCN3C)nc3c(F)c(-c4ccc(F)c5sc(N)c(C#N)c45)ccc23)[C@H]1C` [Compound 141], in assay [1], the “GppNHp-KRAS G12C percent of modification” value is reported as “A (percent of modification ≥70%)”. The compound further gave an IC50 with pERK in NCI-H358 cells (Homo sapiens, NCI-H358, 0.5 h) of less than 0.1 µM.

For `C=CC(=O)N1CC[C@@H](N(CC)c2nc(OC[C@@H]3C[C@@H](F)CN3C)nc3c(F)c(-c4ccc(F)c5sc(N)c(C#N)c45)ccc23)[C@H]1C` [Compound 142], the “GppNHp-KRAS G12C percent of modification” value in assay [1] was “A (percent of modification ≥70%)”. In the assay with pERK in NCI-H358 cells (Homo sapiens, NCI-H358, 0.5 h), this compound gave an IC50 of less than 0.1 µM.

`C=CC(=O)N1CC[C@@H](N(C)c2nc(OC[C@@H]3C[C@@H](F)CN3CC)nc3c(F)c(-c4ccc(F)c5sc(N)c(C#N)c45)c(C(F)(F)F)cc23)[C@@H]1C` [Compound 144]: the “GppNHp-KRAS G12C percent of modification” value in assay [1] is “C (10%≤percent of modification <50%)”. Moreover, the IC50 in the assay on pERK in NCI-H358 cells (Homo sapiens, NCI-H358, 0.5 h) was less than 0.1 µM.

With `C=CC(=O)N1CC[C@@H](N(C)c2nc(OC[C@@H]3C[C@@H](F)CN3C)nc3c(F)c(-c4nc(N)cc(C)c4C(F)(F)F)c(C(F)(F)F)cc23)[C@H]1C` [Compound 145], the “GppNHp-KRAS G12C percent of modification” value in assay [1] is on record as “B (50≤percent of modification <70%)”. Besides, the 50% inhibitory concentration (IC50) in the assay with pERK in NCI-H358 cells (Homo sapiens, NCI-H358, 0.5 h) is 0.1 to 1 µM.

`C=CC(=O)N1C[C@H](N(C)c2nc(OC[C@@H]3CCCN3C)nc3c(F)c(-c4ccc(F)c5sc(N)c(C#N)c45)c(C(F)(F)F)cc23)C[C@H]1C` [Compound 147]: in assay [1], the “GppNHp-KRAS G12C percent of modification” value was “A (percent of modification ≥70%)”. In the assay with pERK in NCI-H358 cells (Homo sapiens, NCI-H358, 0.5 h), this compound yielded a concentration for half-maximal inhibition (IC50) of less than 0.1 µM.

The IC50 is the concentration that gives 50% inhibition.
